From patent publication US7202270B2, “Convenient stable non-hygroscopic crystalline solid forms of racemic and chiral LA-plus salts: process for their manufacture and uses” (priority 2003, dated 2007)
Where a name gives a salt, the structure may show the parent alone.

Experiments:
[1] = Hygroscopicity of the solid salt; assay type: physicochemical; details: solid salt form
Solubility data = assay type: physicochemical; details: Results in gm/dl; 35 to 40° C.
Protocol: Results in gm/dl; tests were done at 35 to 40° C. temperature.

[2] = Antioxidant assay by DPPH radical scavenging activity; assay type: biochemical
Tyrosinase = assay: Activity on Tyrosinase (inhibition); assay type: biochemical
Source text: Tyrosinase inhibition is one of the established in vitro methods of evaluating the skin fairness property.

Collagenase = Collagenase inhibition; assay type: biochemical
Elastase = Elastase inhibition; assay type: biochemical
Propionibacterium acnes = assay: Inhibition of P. acnes (zone of inhibition); assay type: cell-based; details: for Zone of inhibition: P. acnes
[3] = Exposure to sun light for 5 minutes, Conc. 55 μg
[4] = Absence of sun light, Conc. 6.6 mg

SMILES	melting point [°C]	Solubility, ETHANOL (95%) (Solubility data) [%]	Solubility, PROPYLENE GLYCOL (Solubility data) [%]	Solubility, WATER (D. D.) (Solubility data) [%]	% Scavenging (DPPH) [2, 3] [%]	Tyrosinase % Inhibition (Tyrosinase; Conc. 120 μg) [%]	IC50 for Collagenase (Collagenase) [µg/mL]	IC50 for Elastase (Elastase) [µg/mL]	Minimum concentration showing inhibition of P. acnes (Propionibacterium acnes) [%]	Zone of inhibition (Propionibacterium acnes; Conc. of the sample 0.5%) [mm]	Zone of inhibition (Propionibacterium acnes; Conc. of the sample 1%) [mm]	Zone of inhibition (Propionibacterium acnes; Conc. of the sample 2%) [mm]	Zone of inhibition (Propionibacterium acnes; Conc. of the sample 5%) [mm]	Zone of inhibition (Propionibacterium acnes; Conc. of the sample 10%) [mm]	also measured
CN(C)CCNC(=O)CCCCC1CCSS1 (racemic) (as salt: maleate) [LA Plus maleate, (±)-Maleate salt of N-[2-(dimethylamino)ethyl]-1,2-dithiolane-3-pentanamide]	125 to 127	–	–	–	–	–	–	–	–	–	–	–	–	–	–
CN(C)CCNC(=O)CCCCC1CCSS1.Cl (racemic) [(±)-LA-Plus hydrochloride, N-[2-(dimethylamino)ethyl]-1,2-dithiolane-3-pentanamide monohydrochloride]	–	–	–	–	–	–	–	–	–	–	–	–	–	–	Hygroscopicity [1]: hygroscopic
CN(C)CCNC(=O)CCCCC1CCSS1.O=C(O)/C=C/C(=O)O (racemic) [LA Plus fumarate, (±)-Fumarate salt of N-[2-(dimethylamino)ethyl]-1,2-dithiolane-3-pentanamide]	76 to 78	51	23	100	50	53	1600	1400	2	0	0	7	8	10	% Scavenging (DPPH) ([2]; Absence of sun light, Conc. 6.2 mg): 57%
CN(C)CCNC(=O)CCCCC1CCSS1 (racemic) [LA Plus maleate, (±)-Maleate salt of N-[2-(dimethylamino)ethyl]-1,2-dithiolane-3-pentanamide]	–	7.35	13	60	53	58	1600	1400	1.0	0	7	8	9	11	% Scavenging (DPPH) [2, 4]: 54%
O=C(O)CCCCC1CCSS1 (racemic) [α-Lipoic acid, Alpha Lipoic acid, reference compound]	–	–	–	–	–	–	1600	1400	5	0	0	0	7	8	% Scavenging (DPPH) ([2]; Absence of sun light, Conc. 6 mg): 50%; % Scavenging (DPPH) ([2]; Exposure to sun light for 5 minutes, Conc. 45 μg): 50%; Tyrosinase % Inhibition (Tyrosinase; Conc. 100 μg): 51%
O=C1O[C@H]([C@@H](O)CO)C(O)=C1O [Ascorbic acid, reference compound]	–	–	–	–	–	–	–	–	–	–	–	–	–	–	% Scavenging (DPPH) ([2]; Absence of sun light, Conc. 6 μg): 71%; % Scavenging (DPPH) ([2]; Exposure to sun light for 5 minutes, Conc. 6 μg): 59%
CCC[C@@H]1C[C@@H](C(=O)N[C@@H]([C@H]2O[C@H](SC)[C@H](O)[C@@H](O)[C@H]2O)[C@H](C)Cl)N(C)C1 [Clindamycin, reference compound]	–	–	–	–	–	–	–	–	–	0	7	9	15	20	–
CN(C)CCNC(=O)CCCCC1CCSS1.O=C(O)/C=C\C(=O)O (stereo not drawn) [R(+)LA Plus maleate, R-(+)-Maleate salt of N-[2-(dimethylamino)ethyl]-1,2-dithiolane-3-pentanamide]	125 to 127	6.84	10	60	47	58.6	1600	1400	1.0	0	8	10	12	15	% Scavenging (DPPH) [2, 4]: 49%
